Test results taken from patent US4318916A, “Antibiotic PS-5 and derivatives having β-lactamase inhibitory activity and production thereof” (Sanraku-Ocean Co., Ltd., priority 1977, dated 1982).
Converted amounts (≈) assume the structure as drawn.

Experiments:
Assay in all cases: MIC by broth dilution (Table 8)
Format in all cases: cell-based
[1] = system: Streptococcus pyogenes NY-5; details: NY5, 20 h; Streptococcus pyogenes NY-5; 10% horse blood supplemented into the medium; read-out: Minimum inhibitory concentration
Description: (§1) The MIC values of antibiotic PS-5 sodium salt were determined on various pathogenic microorganisms including resistant strains by the broth dilution method utilizing the BRAIN HEART INFUSION BROTH `Eiken` (EIKEN CHEMICAL CO., LTD.).
(§2) The antibiotic PS-5 sodium salt was dissolved in BRAIN HEART INFUSION BROTH `Eiken` (EIKEN CHEMICAL CO., LTD.) (pH 7.0) at concentration in the range of 5-50 μg/ml, from which appropriate dilution series were made in the same liquid medium. The microorganisms listed in Table 8 were cultivated for 18 hours in BRAIN HEART INFUSION BROTH `Eiken` at 28° C. and inoculated into the said dilution series of antibiotic PS-5 at a final inoculum size of 1×10^5 cells/ml. The cultures were allowed to stand at 35° C. for 20 hours, and then the growth of the microorganisms was read at each dilution of antibiotic PS-5. The minimum inhibitory concentration (MIC) represents the smallest concentration of the antibiotic PS-5 (sodium salt) where no propagation of the relevant microorganism was visually confirmed. As the controls, two known beta-lactam antibiotics, cephaloridine and cefoxitin were dissolved in brain heart infustion broth at pH 7.0 at concentrations ranging from 1 μg/ml to 100 μ g/ml and then diluted to make several dilution series in the above mentioned liquid medium. These samples were treated as described above for the MIC determinations.

[2] = system: Staphylococcus aureus Bx-1633; details: BX1633, 20 h; Staphylococcus aureus Bx-1633; PS-5 as sodium salt; read-out: Minimum inhibitory concentration
Description: as §1, §2

[3] = system: Bacillus subtilis ATCC 6633; details: ATCC6633, 20 h; Bacillus subtilis ATCC 6633; read-out: Minimum inhibitory concentration
Description: as §1, §2

[4] = system: Staphylococcus aureus Smith; details: 20 h; Staphylococcus aureus Smith; PS-5 as sodium salt; read-out: Minimum inhibitory concentration
Description: as §1, §2

[5] = system: Staphylococcus aureus EDA 209 P; details: EDA209P, 20 h; Staphylococcus aureus EDA 209 P; PS-5 as sodium salt; read-out: Minimum inhibitory concentration
Description: as §1, §2

[6] = system: Diplococcus pneumoniae Type III; details: Streptococcus pneumoniae, 20 h; Diplococcus pneumoniae Type III; 10% horse blood supplemented into the medium; read-out: Minimum inhibitory concentration
Description: as §1, §2

Serratia marcescens S-18 = details: S18, 20 h, betalactamase producer, read-out: Minimum inhibitory concentration
Description: as §1
as §2, with “determinations. In addition to the MIC values of antibiotic PS-5, those of cephaloridine and cefoxitin are included for reference.” for “determinations.”

Providencia sp. P-8 = details: SP.P8, 20 h, resistant to kanamycin, gentamicin and tobramycin, read-out: Minimum inhibitory concentration
Description: as §1
as §2, with “determinations. In addition to the MIC values of antibiotic PS-5, those of cephaloridine and cefoxitin are included for reference.” for “determinations.”

Proteus rettgeri P-7 = details: Providencia rettgeri, P7, 20 h, resistant to gentamicin and tobramycin, read-out: Minimum inhibitory concentration
Description: as §1
as §2, with “determinations. In addition to the MIC values of antibiotic PS-5, those of cephaloridine and cefoxitin are included for reference.” for “determinations.”

Proteus sp. P-22 = details: 20 h; Proteus sp. P-22; read-out: Minimum inhibitory concentration
Description: as §1
as §2, with “determinations. In addition to the MIC values of antibiotic PS-5, those of cephaloridine and cefoxitin are included for reference.” for “determinations.”

Escherichia coli K 12 = details: K12, 20 h; Escherichia coli K 12; read-out: Minimum inhibitory concentration
Description: as §1
as §2, with “determinations. In addition to the MIC values of antibiotic PS-5, those of cephaloridine and cefoxitin are included for reference.” for “determinations.”

[7] = system: Alcaligenes faecalis B-326; details: B326, 20 h; Alcaligenes faecalis B-326; read-out: Minimum inhibitory concentration
Description: as §1
as §2, with “determinations. In addition to the MIC values of antibiotic PS-5, those of cephaloridine and cefoxitin are included for reference.” for “determinations.”

[8] = system: Enterobacter cloacae E-16; details: E16, 20 h, betalactamase producer, read-out: Minimum inhibitory concentration
Description: as §1
as §2, with “determinations. In addition to the MIC values of antibiotic PS-5, those of cephaloridine and cefoxitin are included for reference.” for “determinations.”

Proteus mirabilis P-6 = details: P6, 20 h, resistant to kanamycin, gentamicin and tobramycin, read-out: Minimum inhibitory concentration
Description: as §1
as §2, with “determinations. In addition to the MIC values of antibiotic PS-5, those of cephaloridine and cefoxitin are included for reference.” for “determinations.”

Enterobacter sp. E-8 = details: SP.E8, 20 h; Enterobacter sp. E-8; betalactamase producer; read-out: Minimum inhibitory concentration
Description: as §1
as §2, with “determinations. In addition to the MIC values of antibiotic PS-5, those of cephaloridine and cefoxitin are included for reference.” for “determinations.”

[9] = system: Enterobacter aerogenes E-19; details: Klebsiella aerogenes, E19, 20 h, betalactamase producer, read-out: Minimum inhibitory concentration
Description: as §1
as §2, with “determinations. In addition to the MIC values of antibiotic PS-5, those of cephaloridine and cefoxitin are included for reference.” for “determinations.”

[10] = system: Staphylococcus aureus Russell; details: 20 h; Staphylococcus aureus Russell; PS-5 as sodium salt; read-out: Minimum inhibitory concentration
Description: as §1
as §2, with “determinations. In addition to the MIC values of antibiotic PS-5, those of cephaloridine and cefoxitin are included for reference.” for “determinations.”

Citrobacter freundii E-9 = details: E9, 20 h; Citrobacter freundii E-9; betalactamase producer; read-out: Minimum inhibitory concentration
Description: as §1
as §2, with “determinations. In addition to the MIC values of antibiotic PS-5, those of cephaloridine and cefoxitin are included for reference.” for “determinations.”

Proteus vulgaris P-5 = details: P5, 20 h, betalactamase producer, read-out: Minimum inhibitory concentration
Description: as §1
as §2, with “determinations. In addition to the MIC values of antibiotic PS-5, those of cephaloridine and cefoxitin are included for reference.” for “determinations.”

[11] = system: Klebsiella pneumoniae K-2; details: K2, 20 h, betalactamase producer, read-out: Minimum inhibitory concentration
Description: as §1
as §2, with “determinations. In addition to the MIC values of antibiotic PS-5, those of cephaloridine and cefoxitin are included for reference.” for “determinations.”

MIC [1]: 0.63 µg/mL (≈ 1.47 µM) | MIC [2]: 1.25 µg/mL | MIC [3]: 1.25 µg/mL (≈ 2.92 µM) | MIC [4]: 2.5 µg/mL | MIC [5]: 1.25 µg/mL | MIC [6]: 1.25 µg/mL (≈ 2.92 µM) | MIC (Serratia marcescens S-18): 50 µg/mL (≈ 117 µM) | MIC (Providencia sp. P-8): 25 µg/mL (≈ 58.5 µM) | MIC (Proteus rettgeri P-7): 6.25 µg/mL (≈ 14.6 µM) | MIC (Proteus sp. P-22): 12.5 µg/mL (≈ 29.2 µM) | MIC (Escherichia coli K 12): 2.5 µg/mL (≈ 5.85 µM) | MIC [7]: 1.56 µg/mL (≈ 3.65 µM) | MIC [8]: > 100 µg/mL | MIC (Proteus mirabilis P-6): 12.5 µg/mL (≈ 29.2 µM) | MIC (Enterobacter sp. E-8): 12.5 µg/mL (≈ 29.2 µM) | MIC [9]: > 100 µg/mL | MIC [10]: 2.5 µg/mL | MIC (Citrobacter freundii E-9): > 100 µg/mL | MIC (Proteus vulgaris P-5): 12.5 µg/mL (≈ 29.2 µM) | MIC [11]: 6.25 µg/mL (≈ 14.6 µM)
Compound: CO[C@@]1(NC(=O)Cc2cccs2)C(=O)N2C(C(=O)O)=C(COC(N)=O)CS[C@@H]21 [Cefoxitin, cefoxitin]
